Data published in ChEMBL document CHEMBL4052645, “Discovery of potent and efficacious pyrrolopyridazines as dual JAK1/3 inhibitors” (Bioorg Med Chem Lett, 2017).

Legend:
[1] = target: Mitogen-activated protein kinase 10 (Homo sapiens) (UniProt P53779); assay: Inhibition of wild-type human partial length JNK3 (V28 to Q422 residues) expressed in mammalian expression system assessed as residual activity at 50 nM by Kinomescan method relative to control
[2] = target: Myosin light chain kinase (Homo sapiens) (UniProt Q32MK0); assay: Inhibition of wild-type human partial length CAMLCK (D488 to K800 residues) expressed in bacterial expression system assessed as residual activity at 50 nM by Kinomescan method relative to control
Sequence of Myosin light chain kinase (Homo sapiens) (Q32MK0 whole entry, the tested form may be a part): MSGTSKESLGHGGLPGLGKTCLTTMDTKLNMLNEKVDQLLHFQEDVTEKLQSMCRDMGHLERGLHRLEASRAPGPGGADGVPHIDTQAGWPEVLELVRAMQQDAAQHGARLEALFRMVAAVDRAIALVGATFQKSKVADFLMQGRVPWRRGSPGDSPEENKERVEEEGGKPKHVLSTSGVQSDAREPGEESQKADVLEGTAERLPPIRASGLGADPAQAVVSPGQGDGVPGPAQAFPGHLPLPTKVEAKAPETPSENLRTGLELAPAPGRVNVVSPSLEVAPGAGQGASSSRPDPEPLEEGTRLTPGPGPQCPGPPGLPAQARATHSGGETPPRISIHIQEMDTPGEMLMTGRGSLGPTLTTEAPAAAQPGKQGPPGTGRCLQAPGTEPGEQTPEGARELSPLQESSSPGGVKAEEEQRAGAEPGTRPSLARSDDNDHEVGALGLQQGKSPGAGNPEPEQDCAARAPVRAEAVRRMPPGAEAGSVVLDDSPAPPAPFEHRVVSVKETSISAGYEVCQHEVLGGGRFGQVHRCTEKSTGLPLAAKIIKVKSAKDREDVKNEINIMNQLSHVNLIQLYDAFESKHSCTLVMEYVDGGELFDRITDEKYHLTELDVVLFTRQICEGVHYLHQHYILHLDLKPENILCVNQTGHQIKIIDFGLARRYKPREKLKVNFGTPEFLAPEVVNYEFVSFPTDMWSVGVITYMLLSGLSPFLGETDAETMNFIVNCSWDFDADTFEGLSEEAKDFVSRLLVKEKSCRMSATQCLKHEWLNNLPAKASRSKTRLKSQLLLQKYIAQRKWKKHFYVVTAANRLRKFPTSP

[3] = target: Aurora kinase C (Homo sapiens) (UniProt Q9UQB9); assay: Inhibition of wild-type human full length AURC (M1 to S275 residues) expressed in bacterial expression system assessed as residual activity at 50 nM by Kinomescan method relative to control
[4] = target: Serine/threonine-protein kinase 38-like (Homo sapiens) (UniProt Q9Y2H1); assay: Inhibition of wild-type human partial length NDR2 (N34 to E447 residues) expressed in bacterial expression system assessed as residual activity at 50 nM by Kinomescan method relative to control
Sequence of Serine/threonine-protein kinase 38-like (Homo sapiens) (Q9Y2H1 2-464 limits assumed): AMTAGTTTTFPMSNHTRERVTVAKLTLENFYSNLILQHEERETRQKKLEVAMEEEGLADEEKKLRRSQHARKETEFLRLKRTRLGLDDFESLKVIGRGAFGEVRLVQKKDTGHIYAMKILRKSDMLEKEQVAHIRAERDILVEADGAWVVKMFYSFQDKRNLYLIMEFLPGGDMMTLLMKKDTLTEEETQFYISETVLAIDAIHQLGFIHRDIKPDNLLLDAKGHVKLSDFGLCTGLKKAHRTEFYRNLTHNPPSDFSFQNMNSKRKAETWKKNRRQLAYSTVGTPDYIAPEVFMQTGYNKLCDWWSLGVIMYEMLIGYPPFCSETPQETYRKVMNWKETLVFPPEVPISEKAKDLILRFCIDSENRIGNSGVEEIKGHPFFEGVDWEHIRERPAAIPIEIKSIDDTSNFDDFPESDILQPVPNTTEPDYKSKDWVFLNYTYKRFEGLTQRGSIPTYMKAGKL

[5] = target: Dual specificity mitogen-activated protein kinase kinase 1 (Homo sapiens) (UniProt Q02750); assay: Inhibition of wild-type human full length MAP2K1 (M1 to V393 residues) expressed in mammalian expression system assessed as residual activity at 50 nM by Kinomescan method relative to control
[6] = target: Mast/stem cell growth factor receptor Kit (Homo sapiens) (UniProt P10721); assay: Inhibition of wild-type human partial length KIT (I571 to D952 residues) expressed in bacterial expression system assessed as residual activity at 50 nM by Kinomescan method relative to control
Sequence of Mast/stem cell growth factor receptor Kit (Homo sapiens) (P10721 whole entry, the tested form may be a part): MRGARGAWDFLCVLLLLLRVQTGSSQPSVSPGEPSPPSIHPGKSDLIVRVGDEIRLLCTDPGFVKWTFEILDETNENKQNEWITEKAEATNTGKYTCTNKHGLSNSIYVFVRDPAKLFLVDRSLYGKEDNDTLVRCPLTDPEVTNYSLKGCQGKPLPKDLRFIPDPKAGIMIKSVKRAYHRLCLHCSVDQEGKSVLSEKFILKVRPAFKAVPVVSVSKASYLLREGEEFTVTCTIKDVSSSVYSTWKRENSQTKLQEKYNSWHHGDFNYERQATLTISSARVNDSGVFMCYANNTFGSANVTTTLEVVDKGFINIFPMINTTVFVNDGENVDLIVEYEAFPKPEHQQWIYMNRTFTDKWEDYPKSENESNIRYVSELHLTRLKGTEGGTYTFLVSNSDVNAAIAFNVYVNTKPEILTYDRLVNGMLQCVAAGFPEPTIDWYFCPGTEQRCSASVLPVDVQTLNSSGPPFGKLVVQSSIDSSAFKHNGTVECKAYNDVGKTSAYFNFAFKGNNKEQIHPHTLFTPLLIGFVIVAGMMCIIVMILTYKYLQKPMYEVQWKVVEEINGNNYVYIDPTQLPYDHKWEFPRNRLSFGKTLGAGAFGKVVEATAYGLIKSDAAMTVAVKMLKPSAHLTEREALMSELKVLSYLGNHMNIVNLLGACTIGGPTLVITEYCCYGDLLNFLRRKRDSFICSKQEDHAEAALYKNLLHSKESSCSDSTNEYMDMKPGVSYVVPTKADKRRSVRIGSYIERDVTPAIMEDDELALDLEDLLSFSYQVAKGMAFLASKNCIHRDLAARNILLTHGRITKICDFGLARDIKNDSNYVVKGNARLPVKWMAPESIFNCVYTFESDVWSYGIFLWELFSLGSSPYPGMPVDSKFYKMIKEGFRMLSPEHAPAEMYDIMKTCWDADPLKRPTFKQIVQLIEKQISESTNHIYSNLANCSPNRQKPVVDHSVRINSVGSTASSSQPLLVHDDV

[7] = target: RAC-alpha serine/threonine-protein kinase (Homo sapiens) (UniProt P31749); assay: Inhibition of wild-type human partial length AKT1 expressed in bacterial expression system assessed as residual activity at 50 nM by Kinomescan method relative to control
[8] = target: Ephrin type-A receptor 2 (Homo sapiens) (UniProt P29317); assay: Inhibition of wild-type human partial length EPHA2 (T593 to V891 residues) expressed in bacterial expression system assessed as residual activity at 50 nM by Kinomescan method relative to control
[9] = target: Serine/threonine-protein kinase 4 (Homo sapiens) (UniProt Q13043); assay: Inhibition of wild-type human full length MST1 (M1 to F487 residues) expressed in bacterial expression system assessed as residual activity at 50 nM by Kinomescan method relative to control
Sequence of Serine/threonine-protein kinase 4 (Homo sapiens) (Q13043 whole entry, the tested form may be a part): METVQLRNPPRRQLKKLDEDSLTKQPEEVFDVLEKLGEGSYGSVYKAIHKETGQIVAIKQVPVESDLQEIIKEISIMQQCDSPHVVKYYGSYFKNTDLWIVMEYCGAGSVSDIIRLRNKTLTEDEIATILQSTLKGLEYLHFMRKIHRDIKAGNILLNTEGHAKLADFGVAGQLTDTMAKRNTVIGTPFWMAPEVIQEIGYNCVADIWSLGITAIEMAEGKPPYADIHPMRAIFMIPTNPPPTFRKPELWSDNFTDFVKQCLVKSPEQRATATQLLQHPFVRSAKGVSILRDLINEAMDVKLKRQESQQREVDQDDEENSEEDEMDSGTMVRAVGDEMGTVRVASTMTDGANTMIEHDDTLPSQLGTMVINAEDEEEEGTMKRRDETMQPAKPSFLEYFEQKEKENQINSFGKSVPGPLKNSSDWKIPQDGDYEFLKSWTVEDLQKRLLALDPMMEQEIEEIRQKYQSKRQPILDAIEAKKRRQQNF

[10] = target: Dual specificity tyrosine-phosphorylation-regulated kinase 1A (Homo sapiens) (UniProt Q13627); assay: Inhibition of wild-type human partial length DYRK1A (H129 to S509 residues) expressed in mammalian expression system assessed as residual activity at 50 nM by Kinomescan method relative to control
[11] = target: Protein-tyrosine kinase 6 (Homo sapiens) (UniProt Q13882); assay: Inhibition of wild-type human partial length BRK (L166 to T451 residues) expressed in bacterial expression system assessed as residual activity at 50 nM by Kinomescan method relative to control
[12] = target: NT-3 growth factor receptor (Homo sapiens) (UniProt Q16288); assay: Inhibition of wild-type human partial length TRKC (Q531 to G825 residues) expressed in mammalian expression system assessed as residual activity at 50 nM by Kinomescan method relative to control
[13] = target: Phosphatidylinositol 3-kinase C2 domain-containing subunit gamma (Homo sapiens) (UniProt O75747); assay: Inhibition of wild-type human partial length PI3KC2G (M1 to I1446 residues) expressed in mammalian expression system assessed as residual activity at 50 nM by Kinomescan method relative to control
[14] = target: Protein-tyrosine kinase 2-beta (Homo sapiens) (UniProt Q14289); assay: Inhibition of wild-type human full length PYK2 (M1 to E967 residues) expressed in bacterial expression system assessed as residual activity at 50 nM by Kinomescan method relative to control
[15] = target: Activated CDC42 kinase 1 (Homo sapiens) (UniProt Q07912); assay: Inhibition of wild-type human partial length ACK (S159 to D474 residues) expressed in bacterial expression system assessed as residual activity at 50 nM by Kinomescan method relative to control
[16] = target: Mitogen-activated protein kinase 12 (Homo sapiens) (UniProt P53778); assay: Inhibition of wild-type human full length p38-gamma (M1 to L367 residues) expressed in mammalian expression system assessed as residual activity at 50 nM by Kinomescan method relative to control
Sequence of Mitogen-activated protein kinase 12 (Homo sapiens) (P53778 whole entry, the tested form may be a part): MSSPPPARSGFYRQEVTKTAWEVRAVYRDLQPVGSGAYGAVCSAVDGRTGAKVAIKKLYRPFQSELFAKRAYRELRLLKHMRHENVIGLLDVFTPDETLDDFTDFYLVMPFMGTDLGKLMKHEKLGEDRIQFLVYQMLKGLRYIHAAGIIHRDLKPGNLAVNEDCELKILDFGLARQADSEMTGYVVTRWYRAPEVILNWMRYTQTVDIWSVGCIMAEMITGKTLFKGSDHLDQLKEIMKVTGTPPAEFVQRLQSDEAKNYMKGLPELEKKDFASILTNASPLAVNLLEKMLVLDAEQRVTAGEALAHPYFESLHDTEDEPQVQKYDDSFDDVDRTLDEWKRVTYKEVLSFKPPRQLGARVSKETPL

[17] = target: Serine/threonine-protein kinase MRCK gamma (Homo sapiens) (UniProt Q6DT37); assay: Inhibition of wild-type human partial length DMPK2 (S46 to S408 residues) expressed in bacterial expression system assessed as residual activity at 50 nM by Kinomescan method relative to control
[18] = target: Serine/threonine-protein kinase ICK (Homo sapiens) (UniProt Q9UPZ9); assay: Inhibition of wild-type human partial length ICK (M1 to P314 residues) expressed in mammalian expression system assessed as residual activity at 50 nM by Kinomescan method relative to control
[19] = target: Mitogen-activated protein kinase kinase kinase 6 (Homo sapiens) (UniProt O95382); assay: Inhibition of wild-type human partial length MAP3K6 (M278 to R972 residues) expressed in mammalian expression system assessed as residual activity at 50 nM by Kinomescan method relative to control
[20] = target: Angiopoietin-1 receptor (Homo sapiens) (UniProt Q02763); assay: Inhibition of wild-type human partial length TIE2 (N804 to T1112 residues) expressed in bacterial expression system assessed as residual activity at 50 nM by Kinomescan method relative to control
[21] = target: Glycogen synthase kinase-3 alpha (Homo sapiens) (UniProt P49840); assay: Inhibition of wild-type human full length GSK3A (M1 to S483 residues) expressed in bacterial expression system assessed as residual activity at 50 nM by Kinomescan method relative to control
[22] = target: Maternal embryonic leucine zipper kinase (Homo sapiens) (UniProt Q14680); assay: Inhibition of wild-type human full length MELK (M1 to V651 residues) expressed in bacterial expression system assessed as residual activity at 50 nM by Kinomescan method relative to control
Sequence of Maternal embryonic leucine zipper kinase (Homo sapiens) (Q14680 whole entry, looked up, the tested form may be a part): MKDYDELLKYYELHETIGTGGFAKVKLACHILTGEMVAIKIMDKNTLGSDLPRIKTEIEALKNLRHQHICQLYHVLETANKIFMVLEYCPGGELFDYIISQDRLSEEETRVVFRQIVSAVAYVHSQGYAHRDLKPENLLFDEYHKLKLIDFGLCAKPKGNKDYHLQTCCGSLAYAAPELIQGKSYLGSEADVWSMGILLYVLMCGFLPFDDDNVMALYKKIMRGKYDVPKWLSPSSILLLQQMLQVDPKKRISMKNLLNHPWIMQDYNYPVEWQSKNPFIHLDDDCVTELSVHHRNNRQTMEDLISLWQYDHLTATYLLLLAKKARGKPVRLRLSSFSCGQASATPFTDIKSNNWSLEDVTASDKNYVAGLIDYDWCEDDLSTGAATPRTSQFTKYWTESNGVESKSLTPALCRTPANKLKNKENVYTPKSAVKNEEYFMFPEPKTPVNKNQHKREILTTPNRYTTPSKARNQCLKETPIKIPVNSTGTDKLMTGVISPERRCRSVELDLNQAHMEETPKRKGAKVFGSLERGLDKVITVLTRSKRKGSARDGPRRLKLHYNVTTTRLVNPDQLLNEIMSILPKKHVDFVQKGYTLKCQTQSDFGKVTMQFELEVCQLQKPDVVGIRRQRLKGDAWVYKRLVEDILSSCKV

[23] = target: Atypical kinase COQ8B, mitochondrial (Homo sapiens) (UniProt Q96D53); assay: Inhibition of wild-type human full length ADCK4 (M1 to S544 residues) expressed in bacterial expression system assessed as residual activity at 50 nM by Kinomescan method relative to control
[24] = target: Serine/threonine-protein kinase 33 (Homo sapiens) (UniProt Q9BYT3); assay: Inhibition of wild-type human full length STK33 (M1 to L514 residues) expressed in bacterial expression system assessed as residual activity at 50 nM by Kinomescan method relative to control
Sequence of Serine/threonine-protein kinase 33 (Homo sapiens) (Q9BYT3 whole entry, looked up, the tested form may be a part): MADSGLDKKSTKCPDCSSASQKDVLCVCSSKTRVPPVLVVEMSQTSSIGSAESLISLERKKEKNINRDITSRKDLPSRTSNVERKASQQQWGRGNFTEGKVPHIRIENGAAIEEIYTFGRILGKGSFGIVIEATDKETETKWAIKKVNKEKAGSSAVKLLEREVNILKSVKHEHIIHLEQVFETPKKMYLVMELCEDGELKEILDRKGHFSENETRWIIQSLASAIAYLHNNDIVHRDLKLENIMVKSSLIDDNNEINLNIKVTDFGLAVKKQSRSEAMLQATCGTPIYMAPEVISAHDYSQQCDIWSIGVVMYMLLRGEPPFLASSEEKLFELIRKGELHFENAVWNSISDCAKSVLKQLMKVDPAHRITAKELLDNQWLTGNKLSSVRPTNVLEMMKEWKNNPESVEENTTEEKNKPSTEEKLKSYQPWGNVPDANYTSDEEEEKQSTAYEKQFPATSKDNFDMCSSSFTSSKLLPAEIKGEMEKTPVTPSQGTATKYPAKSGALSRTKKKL

[25] = target: Serine/threonine-protein kinase TBK1 (Homo sapiens) (UniProt Q9UHD2); assay: Inhibition of wild-type human full length TBK1 (M1 to L729 residues) expressed in mammalian expression system assessed as residual activity at 50 nM by Kinomescan method relative to control
Sequence of Serine/threonine-protein kinase TBK1 (Homo sapiens) (Q9UHD2 whole entry, the tested form may be a part): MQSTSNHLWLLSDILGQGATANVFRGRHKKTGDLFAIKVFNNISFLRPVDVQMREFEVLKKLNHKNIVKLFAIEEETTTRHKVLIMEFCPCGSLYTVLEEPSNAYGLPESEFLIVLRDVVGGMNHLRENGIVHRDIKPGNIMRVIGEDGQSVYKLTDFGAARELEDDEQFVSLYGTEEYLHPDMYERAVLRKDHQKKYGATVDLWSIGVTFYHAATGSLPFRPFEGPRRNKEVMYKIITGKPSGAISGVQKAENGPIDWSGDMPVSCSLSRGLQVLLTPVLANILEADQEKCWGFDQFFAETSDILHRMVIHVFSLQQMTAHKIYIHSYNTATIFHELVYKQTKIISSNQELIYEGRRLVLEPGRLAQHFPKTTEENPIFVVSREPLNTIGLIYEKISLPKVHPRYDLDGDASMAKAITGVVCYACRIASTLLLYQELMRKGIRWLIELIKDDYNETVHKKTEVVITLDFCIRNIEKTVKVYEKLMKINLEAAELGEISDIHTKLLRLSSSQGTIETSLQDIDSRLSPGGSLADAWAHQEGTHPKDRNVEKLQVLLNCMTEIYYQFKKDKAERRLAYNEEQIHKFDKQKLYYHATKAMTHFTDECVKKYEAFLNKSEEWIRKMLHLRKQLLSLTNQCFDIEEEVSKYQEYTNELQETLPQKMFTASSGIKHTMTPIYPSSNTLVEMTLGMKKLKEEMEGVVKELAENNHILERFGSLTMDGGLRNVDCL

SMILES | Activity [1] | Activity [2] | Activity [3] | Activity [4] | Activity [5] | Activity [6] | Activity [7] | Activity [8] | Activity [9] | Activity [10] | Activity [11] | Activity [12] | Activity [13] | Activity [14] | Activity [15] | Activity [16] | Activity [17] | Activity [18] | Activity [19] | Activity [20] | also measured
COc1ccc(-c2cc3c(N[C@@H]4CC[C@](C)(N)C4(C)C)c(C(N)=O)cnn3c2)cn1 | 100% | 100% | 82% | 100% | 94% | 98% | 95% | 100% | 35% | 100% | 96% | 100% | 100% | 93% | 100% | 100% | 97% | 100% | 93% | 100% | Activity [21]: 100%; Activity [22]: 79%; Activity [23]: 100%; Activity [24]: 100%; Activity [25]: 97%
CC1(C)[C@H](Nc2c(C(N)=O)cnn3cc(-c4ccccc4)cc23)CC[C@]1(C)N | 87% | 100% | 42% | 100% | 80% | 55% | 79% | 81% | 19% | 73% | 100% | 100% | 100% | 100% | 73% | 100% | 37% | 64% | 56% | 87% | Activity [21]: 65%; Activity [22]: 79%; Activity [23]: 91%; Activity [24]: 100%; Activity [25]: 90%
